From PMC4501006, “Preliminary Characterization and In Vivo Studies of Structurally Identical ^18F- and ^125I-Labeled Benzyloxybenzenes for PET/SPECT Imaging of β-Amyloid Plaques” (Scientific Reports, 2015)
Values joined by “and” are separate entries in the source; they are usually repeats but may differ in a detail not shown here. Equal entries are not always repeated.

Legend:
[1] = target: Aβ plaques (Homo sapiens, UniProt P05067); assay: In vitro autoradiography on AD human brain sections; type: binding
Chain of Aβ plaques (P05067 672-711 limits assumed): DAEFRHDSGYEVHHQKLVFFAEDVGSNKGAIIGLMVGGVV
Excerpt: Figure 5 In vitro autoradiography of [^125I]7a (a–d), [^18F]7a (e–h), [^125I]12a (i–l) and [^18F]12a (m–p).

[2] = In vivo biodistribution in normal ICR mice; details: i.v.
Procedure: Histograms of brain and intestine uptake were presented in Fig. 6 for comparison, while detailed data concerning the in vivo biodistribution in normal ICR mice were collected in Table S3 in Supplementary information. […] [^125I]7a and [^125I]12a were rapidly cleared from the normal brain, with only small amounts of radioactivity remaining at 60 min post-injection (0.55% ID/g for [^125I]7a and 0.37% ID/g for [^125I]12a). […] In addition, no significant deiodination was observed (less than 0.5% ID in the thyroid at 60 min).
As the specific activity of ^18F-labeled ligands (about 60 GBq/μmol) was slightly lower than that of corresponding no-carrier-added ^125I-labeled ligands (81 GBq/μmol), the impact of specific activity on pharmacokinetics was studied. In vivo biodistribution of radioactivity after injection of carrier-added [^125I]7a with equal specific activity to corresponding [^18F]7a (60 GBq/μmol) was conducted in normal ICR mice through the same procedure.
A structural model of an Aβ fiber (PDB ID: 2LMO) derived from solid state NMR was downloaded from the RCSB Protein Data Bank (www.rcsb.org/pdb). Geometric optimization was performed using Gaussian 09 at the B3LYP/6–31 G and 3-21G levels in the water phase. Molecular docking was performed using AutoDock4.0, and the docking results were graphed with VMD 1.9.1 software. SYBYL-X 1.1 software was used to predict the binding affinities with previously constructed 3D-QSAR models. All reagents for chemical synthesis were used as purchased without further purification. [^125I]NaI was purchased from PerkinElmer and ^18F^– was kindly provided by the Chinese PLA General Hospital. ^1H and ^13C NMR spectra were recorded on a Bruker Avance III NMR spectrometer (400 MHz for ^1H; 101 MHz for ^13C) in CDCl3 or DMSO-d6 solutions at room temperature. Mass spectra were acquired with a GCT CA127 Micronass UK instrument. X-ray crystallographic data of compound 12a were collected on a Bruker Smart APEX II diffractometer (Bruker Co., Germany) and deposited at the Cambridge Crystallographic Data Centre as supplementary publication (no. CCDC 1063679). HPLC analysis was performed on a Shimadzu SCL-20 AVP equipped with a Bioscan Flow Count 3200 NaI/PMT γ-radiation scintillation detector and a SPD-20A UV detector, λ = 254 nm. A Venusil MP C18 reverse phase column (Agela Technologies, 5 μm, 4.6 × 250 mm) was used for separations and purity determinations with a binary gradient system (acetonitrile: water = 80%: 20%) at a 1.0 mL/min flow rate. Fluorescent observation was performed on the Axio Observer Z1 inverted fluorescence microscope (Zeiss, Germany) equipped with a DAPI filter set (excitation, 405 nm). Post-mortem brain sections from an autopsy-confirmed AD subject and a control subject were acquired from the Chinese Brain Bank. Transgenic mice (APPswe/PSEN1, male) and wild-type mice (C57BL6, male) were purchased from the Institute of Laboratory Animal Science, Chinese Academy of Medical Sciences. Normal ICR mice (20–22 g, male) were used for in vivo biodistribution, dynamic PET/CT and SPECT/CT scans, and biostability experiments. All experiments on mice were performed in accordance with the guidelines approved by the animal care committee of Beijing Normal University and Xiamen University.

[3] = carrier-added, SA ≈ 60 GBq/μmol, 2 min
[4] = carrier-added, SA ≈ 60 GBq/μmol, 10 min
[5] = carrier-added, SA ≈ 60 GBq/μmol, 30 min
[6] = carrier-added, SA ≈ 60 GBq/μmol, 60 min

- in vitro autoradiography, plaque labeling [1]: specifically label Aβ deposits
- Biodistribution of radioactivity, blood [2, 3]: 3.30 ± 0.43 % injected dose per gram
- Biodistribution of radioactivity, brain [2, 3]: 5.39 % injected dose per gram
- Biodistribution of radioactivity, heart [2, 3]: 7.34 ± 0.69 % injected dose per gram
- Biodistribution of radioactivity, intestine [2, 3]: 4.57 ± 0.96 % injected dose per organ
- Biodistribution of radioactivity, kidney [2, 3]: 9.80 ± 1.05 % injected dose per gram
- Biodistribution of radioactivity, liver [2, 3]: 12.12 ± 2.01 % injected dose per gram
- Biodistribution of radioactivity, lung [2, 3]: 7.77 ± 0.18 % injected dose per gram
- Biodistribution of radioactivity, muscle [2, 3]: 3.37 ± 0.50 % injected dose per gram
- Biodistribution of radioactivity, pancreas [2, 3]: 6.79 ± 1.53 % injected dose per gram
- Biodistribution of radioactivity, spleen [2, 3]: 3.63 ± 0.83 % injected dose per gram
- Biodistribution of radioactivity, stomach [2, 3]: 1.15 ± 0.21 % injected dose per organ
- Biodistribution of radioactivity, thyroid [2, 3]: 0.12 ± 0.03 % injected dose per organ
- Biodistribution of radioactivity, brain ([2]; carrier-added, SA ≈ 60 GBq/μmol, 2 min, listed as [125I]7a): 5.39 ± 0.36 % injected dose per gram
- Biodistribution of radioactivity, blood [2, 4]: 2.31 ± 0.22 % injected dose per gram
- Biodistribution of radioactivity, brain [2, 4]: 3.51 ± 0.36 % injected dose per gram
- Biodistribution of radioactivity, heart [2, 4]: 2.32 ± 0.15 % injected dose per gram
- Biodistribution of radioactivity, intestine [2, 4]: 8.51 ± 0.48 % injected dose per organ
- Biodistribution of radioactivity, kidney [2, 4]: 10.01 ± 1.43 % injected dose per gram
- Biodistribution of radioactivity, liver [2, 4]: 11.30 ± 0.58 % injected dose per gram
- Biodistribution of radioactivity, lung [2, 4]: 6.50 ± 0.69 % injected dose per gram
- Biodistribution of radioactivity, muscle [2, 4]: 1.42 ± 0.20 % injected dose per gram
- Biodistribution of radioactivity, pancreas [2, 4]: 2.79 ± 0.35 % injected dose per gram
- Biodistribution of radioactivity, spleen [2, 4]: 1.53 ± 0.23 % injected dose per gram
- Biodistribution of radioactivity, stomach [2, 4]: 0.74 ± 0.09 % injected dose per organ
- Biodistribution of radioactivity, thyroid [2, 4]: 0.11 ± 0.01 % injected dose per organ
- Biodistribution of radioactivity, blood [2, 5]: 1.39 ± 0.15 % injected dose per gram
- Biodistribution of radioactivity, brain [2, 5]: 0.97 ± 0.11 % injected dose per gram
- Biodistribution of radioactivity, heart [2, 5]: 0.96 ± 0.13 % injected dose per gram
- Biodistribution of radioactivity, intestine [2, 5]: 18.87 ± 2.27 % injected dose per organ
- Biodistribution of radioactivity, kidney [2, 5]: 6.25 ± 1.23 % injected dose per gram
- Biodistribution of radioactivity, liver [2, 5]: 6.29 ± 0.22 % injected dose per gram
- Biodistribution of radioactivity, lung [2, 5]: 4.30 ± 0.58 % injected dose per gram
- Biodistribution of radioactivity, muscle [2, 5]: 0.95 ± 0.08 % injected dose per gram
- Biodistribution of radioactivity, pancreas [2, 5]: 1.06 ± 0.16 % injected dose per gram
- Biodistribution of radioactivity, spleen [2, 5]: 0.62 ± 0.03 % injected dose per gram
- Biodistribution of radioactivity, stomach [2, 5]: 1.67 ± 0.33 % injected dose per organ
- Biodistribution of radioactivity, thyroid [2, 5]: 0.12 ± 0.04 % injected dose per organ
- Biodistribution of radioactivity, blood [2, 6]: 0.83 ± 0.06 % injected dose per gram
- Biodistribution of radioactivity, brain [2, 6]: 0.37 % injected dose per gram
- Biodistribution of radioactivity, heart [2, 6]: 0.55 ± 0.10 % injected dose per gram
- Biodistribution of radioactivity, intestine [2, 6]: 25.30 ± 3.94 % injected dose per organ
- Biodistribution of radioactivity, kidney [2, 6]: 3.40 ± 0.48 % injected dose per gram
- Biodistribution of radioactivity, liver [2, 6]: 3.31 ± 0.37 % injected dose per gram
- Biodistribution of radioactivity, lung [2, 6]: 1.91 ± 0.29 % injected dose per gram
- Biodistribution of radioactivity, muscle [2, 6]: 0.72 ± 0.20 % injected dose per gram
- Biodistribution of radioactivity, pancreas [2, 6]: 0.57 ± 0.05 % injected dose per gram
- Biodistribution of radioactivity, spleen [2, 6]: 0.36 ± 0.03 % injected dose per gram
- Biodistribution of radioactivity, stomach [2, 6]: 1.04 ± 0.30 % injected dose per organ
- Biodistribution of radioactivity, thyroid [2, 6]: 0.22 ± 0.05 % injected dose per organ
- Biodistribution of radioactivity, brain ([2]; carrier-added, SA ≈ 60 GBq/μmol, 60 min, listed as [125I]7a): 0.37 ± 0.05 % injected dose per gram
- brain2 min/brain60 min ratio [2]: 12.8
- Biodistribution of radioactivity, blood ([2]; 2 min): 5.03 ± 0.20 % injected dose per gram
- Biodistribution of radioactivity, heart ([2]; 2 min): 9.70 ± 2.25 % injected dose per gram
- Biodistribution of radioactivity, intestine ([2]; 2 min): 6.46 ± 0.79 % injected dose per organ
- Biodistribution of radioactivity, kidney ([2]; 2 min): 12.03 ± 1.20 % injected dose per gram
- Biodistribution of radioactivity, liver ([2]; 2 min): 22.45 ± 3.88 % injected dose per gram
- Biodistribution of radioactivity, lung ([2]; 2 min): 10.78 ± 2.33 % injected dose per gram
- Biodistribution of radioactivity, muscle ([2]; 2 min): 3.72 ± 0.51 % injected dose per gram
- Biodistribution of radioactivity, pancreas ([2]; 2 min): 8.15 ± 1.09 % injected dose per gram
- Biodistribution of radioactivity, spleen ([2]; 2 min): 3.86 ± 0.21 % injected dose per gram
- Biodistribution of radioactivity, stomach ([2]; 2 min): 1.32 ± 0.21 % injected dose per organ
- Biodistribution of radioactivity, thyroid ([2]; 2 min): 0.12 ± 0.02 % injected dose per organ
- Biodistribution of radioactivity, brain ([2]; 2 min, listed as [125I]7a): 7.04 ± 0.89 % injected dose per gram
- Biodistribution of radioactivity, blood ([2]; 10 min): 3.03 ± 0.48 % injected dose per gram
- Biodistribution of radioactivity, brain ([2]; 10 min): 2.73 ± 0.25 % injected dose per gram
- Biodistribution of radioactivity, heart ([2]; 10 min): 2.01 ± 0.14 % injected dose per gram
- Biodistribution of radioactivity, intestine ([2]; 10 min): 17.21 ± 2.33 % injected dose per organ
- Biodistribution of radioactivity, kidney ([2]; 10 min): 9.53 ± 1.58 % injected dose per gram
- Biodistribution of radioactivity, liver ([2]; 10 min): 14.43 ± 2.37 % injected dose per gram
- Biodistribution of radioactivity, lung ([2]; 10 min): 7.44 ± 1.59 % injected dose per gram
- Biodistribution of radioactivity, muscle ([2]; 10 min): 1.28 ± 0.11 % injected dose per gram
- Biodistribution of radioactivity, pancreas ([2]; 10 min): 2.07 ± 0.30 % injected dose per gram
- Biodistribution of radioactivity, spleen ([2]; 10 min): 1.32 ± 0.13 % injected dose per gram
- Biodistribution of radioactivity, stomach ([2]; 10 min): 1.08 ± 0.24 % injected dose per organ
- Biodistribution of radioactivity, thyroid ([2]; 10 min): 0.09 ± 0.02 % injected dose per organ
- Biodistribution of radioactivity, blood ([2]; 30 min): 2.17 ± 0.31 % injected dose per gram
- Biodistribution of radioactivity, brain ([2]; 30 min): 1.05 ± 0.22 % injected dose per gram
- Biodistribution of radioactivity, heart ([2]; 30 min): 1.65 ± 0.43 % injected dose per gram
- Biodistribution of radioactivity, intestine ([2]; 30 min): 19.88 ± 4.22 % injected dose per organ
- Biodistribution of radioactivity, kidney ([2]; 30 min): 6.71 ± 0.78 % injected dose per gram
- Biodistribution of radioactivity, liver ([2]; 30 min): 12.35 ± 2.83 % injected dose per gram
- Biodistribution of radioactivity, lung ([2]; 30 min): 4.25 ± 0.41 % injected dose per gram
- Biodistribution of radioactivity, muscle ([2]; 30 min): 1.29 ± 0.31 % injected dose per gram
- Biodistribution of radioactivity, pancreas ([2]; 30 min): 2.61 ± 0.59 % injected dose per gram
- Biodistribution of radioactivity, spleen ([2]; 30 min): 1.26 ± 0.20 % injected dose per gram
- Biodistribution of radioactivity, stomach ([2]; 30 min): 4.38 ± 1.00 % injected dose per organ
- Biodistribution of radioactivity, thyroid ([2]; 30 min): 0.12 ± 0.01 % injected dose per organ
- Biodistribution of radioactivity, blood ([2]; 60 min): 1.96 ± 0.31 % injected dose per gram
- Biodistribution of radioactivity, brain ([2]; 60 min): 0.55 % injected dose per gram
- Biodistribution of radioactivity, heart ([2]; 60 min): 1.00 ± 0.18 % injected dose per gram
- Biodistribution of radioactivity, intestine ([2]; 60 min): 20.21 ± 7.78 % injected dose per organ
- Biodistribution of radioactivity, kidney ([2]; 60 min): 6.56 ± 1.10 % injected dose per gram
- Biodistribution of radioactivity, liver ([2]; 60 min): 5.15 ± 1.09 % injected dose per gram
- Biodistribution of radioactivity, lung ([2]; 60 min): 4.04 ± 1.63 % injected dose per gram
- Biodistribution of radioactivity, muscle ([2]; 60 min): 1.36 ± 0.25 % injected dose per gram
- Biodistribution of radioactivity, pancreas ([2]; 60 min): 1.97 ± 0.48 % injected dose per gram
- Biodistribution of radioactivity, spleen ([2]; 60 min): 1.14 ± 0.56 % injected dose per gram
- Biodistribution of radioactivity, stomach ([2]; 60 min): 2.44 ± 0.97 % injected dose per organ
- Biodistribution of radioactivity, thyroid ([2]; 60 min): 0.16 ± 0.03 % injected dose per organ
- Biodistribution of radioactivity, brain ([2]; 60 min, listed as [125I]7a): 0.55 ± 0.11 % injected dose per gram
Compound: FCCOc1ccc(OCc2ccc([125I])cc2)cc1 [[^125I]7a]
- Biodistribution of radioactivity, brain ([2]; 2 min): > 5 % injected dose per gram and 7.04 % injected dose per gram
